Experiments:
[1] = system: Leishmania donovani axenic amastigote parasites; experiment: Leishmania donovani axenic amastigote proliferation assay (Cell TiterGlo luminescence); format: cell-based; details: 48 h, axenic amastigotes, 2 day incubation, read-out: L. donovani amastigotes EC50
Procedure: Leishmania donovani Axenic Amastigote Proliferation Assay […] At the same time control compounds and DMSO are added to plates to serve as the positive and negative controls, respectively. 40 μL of parasite culture (9600 parasites) are then added to the plate wells. The plates are then placed into incubators. After 2 day incubation, 20 μL of Cell TiterGlo (Promega) is added to the plate wells. The luminescence signal of each well is measured using the Envision reader (Perkin Elmer).

[2] = system: Trypanosoma brucei Lister 427 strain, bloodstream form; experiment: Proliferation of Trypanosoma brucei (Cell Titer Glo); format: cell-based; details: 48 hours, read-out: T. brucei EC50
Text: Assay for Proliferation of Kinetoplastid Parasite Trypanosoma brucei. The proliferation is quantified by the addition of Cell Titer Glo (Promega®) a luminescent cell viability assay that measures the number of viable cells in culture based on the quantification of cellular ATP amount, which is an indicator of metabolically active cells. The following assay illustrates the invention without in any way limiting the scope of the invention. This parasite proliferation assay measures the increase in parasite growth using an assay that measures ATP activity, Cell Titer Glo®. […] Then 25 μl of a suspension of T. brucei culture in HMI-9 media is dispensed into the assay plates. […] The plates are then read for luminescence.

CON(C)C(=O)Nc1cccc(-c2cn3cc(NC(=O)OC(C)C)cnc3n2)c1 [Compound 14, propan-2-yl N-[2-(3-{[methoxy(methyl)carbamoyl]amino}phenyl)imidazo[1,2-a]pyrimidin-6-yl]carbamate]
EC50 [1]: 4200 nM | EC50 [2]: 479 nM

Source: patent US9296754B2, “Compounds and compositions for the treatment of parasitic diseases” (Novartis AG, priority 2013, dated 2016)
